Counter-ions that a name gives are not always drawn. Like-named read-outs stand apart in the source and are kept apart here.
Test system: mice
Assay: Phenylquinone-induced writhing test on mice (analgesia)
Assay type: in vivo, male NMRI mice
Settings: Mus musculus, read-out: ED50 (writhing test on mice)
Experimental: Testing for analgesia using the writhing test on mice
Testing for analgesic effectiveness was performed using the phenylquinone-induced writhing test on mice, modified according to I. C. Hendershot, J. Forsaith, J. Pharmacol. Exp. Ther. 125, 237-240 (1959). Male NMRI mice with a weight of 25-30 g were used for this purpose. For each dose of substance, groups of 10 animals received, 10 minutes after the intravenous administration of a compound according to the invention, 0.3 ml per mouse of an 0.02% aqueous solution of phenylquinone (phenylbenzoquinone: manufactured by Sigma, Deisenhofen; solution prepared with the addition of 5% ethanol and kept on a water bath at 45° C.) administered intraperitoneally. The animals were placed individually in observation cages. The number of pain-induced stretching movements (so-called writhing reactions=straightening of the body with stretching of the rear extremities) 5-20 minutes after the administration of phenylquinone was counted by means of a push-button counter.
The ED50 values of the writhing reaction were calculated by means of regression analysis (evaluation program supplied by Martens EDV Service, Eckental) from the dose-dependent decrease in the writhing reactions, by comparison with groups of animals which were tested in parallel and to which no compounds according to the invention were administered.

[1] = mice, intravenous, 10 minutes before phenylquinone (0.3 ml of 0.02% solution i.p.), writhing reactions counted 5-20 minutes after phenylquinone

SMILES	ED50 [1] [mg/kg]	ED50 (iv) [mg/kg]
C/C=C(\c1cccc(OC(=O)c2ccccc2OC(C)=O)c1)C(C)CN(C)C (racemic) [Example 4, (Z)-(RS)-2-acetoxy-benzoic acid-3-[1-2-dimethylamino-1-methyl-ethyl)-propenyl]-phenyl ester hydrochloride]	1.64	
C/C=C(\c1cccc(O)c1)C(C)CN(C)C.Cl (racemic) [Example 2, (Z)-(RS)-3-[1-(2-dimethylamino-1-methyl-ethyl)-propenyl]-phenol hydrochloride]	1.37	
CN(C)C[C@H]1CCC=C1c1ccc(C(F)(F)F)cc1 [20 (+)-enantiomer]	1.4	
CC(C)=C(c1cccc(O)c1)C(C)CN(C)C.Cl (racemic) [Example 18, (RS)-3-[1-(2-dimethylamino-1-methyl-ethyl)-2-methyl-propenyl]-phenol hydrochloride]	2.07	
C/C=C(\c1cccc(O)c1)[C@H](C)CN(C)C [3 (+)-enantiomer]	2.25	
CC/C=C(\c1cccc(O)c1)C(C)CN(C)C.Cl (racemic) [Example 15, (Z)-(RS)-3-[1-(2-dimethylamino-1-methyl-ethyl)-but-1-enyl]-phenol hydrochloride]	1.33	
Cc1cc2c(C3=CCCCC3CN(C)C)cccc2s1.Cl (racemic) [Example 24, (RS)-dimethyl-[2-(2-methyl-benzo[b]thiophen-4-yl]-cyclohex-2-enylmethyl]-amine hydrochloride]	1.35	
C/C=C(\c1ccc2cc(O)ccc2c1)C(C)CN(C)C.Cl (racemic) [Example 12, (Z)-(RS)-6-[1-(2-dimethylamino-1-methyl-ethyl)-propenyl]-naphth-2-ol hydrochloride]	0.97	
CN(C)C[C@@H]1CCC=C1c1ccc(C(F)(F)F)cc1 [20 (-)-enantiomer]	2.12	
COc1cccc([C@@]2(O)CCCC[C@@H]2CN(C)C)c1.Cl (racemic) [tramadol, (1RS,2RS)-2-dimethylaminomethyl-1-(3-methoxy-phenyl)-cyclohexanol hydrochloride, reference compound]		3.68
CN(C)C[C@@H]1CCCC=C1c1cccc(O)c1 [26 (-)-enantiomer]	1.04	
CN(C)C[C@H]1CCCC=C1c1cccc(O)c1 [27 (+)-enantiomer]	1.6	
C[C@@H]1C=C(c2cccc(O)c2)[C@H](CN(C)C)CC1 [25 (-)-enantiomer]	0.9	
C/C=C(\c1cccc(O)c1)[C@@H](C)CN(C)C [3 (-)-enantiomer]	0.98	
